# What was measured:
# Format in all cases: in vivo
# [1] = tested on: Ipomoea grandifolia (IPOGR); experiment: herbicidal action with/without simulated rainfall after treatment, Ipomoea grandifolia; conditions: 1500 g/ha diuron, 1080 g/ha glyphosate; for herbicidal action against Ipomoea grandifolia (IPOGR): control without simulated rainfall, Example 16.1
# Procedure: (§1) The enhancement of the rainfastness of glyphosate was determined via the herbicidal activity of the mixture comprising glyphosate and the respective rainfastness enhancing herbicidal component B as well as of the single herbicidal components in relation to simulated rainfall at different time intervals.
# (§2) The evaluation of the damage caused by the method and the compositions the according to the present invention and the single herbicidal components was carried out using a scale from 0 to 100%, compared to the untreated control plots. Here, 0 means no damage and 100 means complete destruction of the plants of a respective weed or crop species.
# (§3) The application was performed with a fixed spayer system with air pressurization and with a tank spray volume of two liters. The speed of the spray device over the plants was adjusted for a spray volume of 200 I/ha. The spray device was a spray barr with four nozzles from the type Teejet XR 11002VS with a space of 50 cm between each nozzle.
# (§4) The application was performed at a weed stage of 6 to 8 leaves. After the application of the formulated herbicides the leaves were washed through rain of 20 mm using a fixed rain simulator system at following time interval: 15 min, 30 min, 1, 2, 3, 4 and 6 hours after treatment.
# [2] = tested on: Brachiaria decumbens (BRADE); experiment: herbicidal action with/without simulated rainfall after treatment, Brachiaria decumbens; conditions: 1500 g/ha diuron, 1080 g/ha glyphosate; for herbicidal action against Brachiaria decumbens (BRADE): control without simulated rainfall, Example 17.1
# Procedure: as §1, §2, §3, §4
# [3] = tested on: Echinochloa colonum (ECHCO); experiment: herbicidal action with/without simulated rainfall after treatment, Echinochloa colonum; conditions: 1500 g/ha diuron, 1080 g/ha glyphosate; for herbicidal action against Echinochloa colonum (ECHCO): control without simulated rainfall, Example 15.1
# Procedure: as §1, §2, §3, §4
smiles,measurement,setting,value
"CN(C)C(=O)Nc1ccc(Cl)c(Cl)c1 [Diuron, diuron]",herbicidal action against Ipomoea grandifolia (IPOGR),[1]; 1 DAA,0
same,herbicidal action against Ipomoea grandifolia (IPOGR),[1]; 2 DAA,0
same,herbicidal action against Ipomoea grandifolia (IPOGR),[1]; 3 DAA,1.33
same,herbicidal action against Ipomoea grandifolia (IPOGR),[1]; 7 DAA,7.33
same,herbicidal action against IPOGR,"[1]; simulated rainfall 15 min after treatment, 1 DAA, Example 16.2",0
same,herbicidal action against IPOGR,"[1]; simulated rainfall 15 min after treatment, 2 DAA, Example 16.2",1
same,herbicidal action against IPOGR,"[1]; simulated rainfall 15 min after treatment, 3 DAA, Example 16.2",3.33
same,herbicidal action against IPOGR,"[1]; simulated rainfall 15 min after treatment, 7 DAA, Example 16.2",21
same,herbicidal action against IPOGR,"[1]; simulated rainfall 30 min after treatment, 1 DAA, Example 16.3",0
same,herbicidal action against IPOGR,"[1]; simulated rainfall 30 min after treatment, 2 DAA, Example 16.3",0
same,herbicidal action against IPOGR,"[1]; simulated rainfall 30 min after treatment, 3 DAA, Example 16.3",3
same,herbicidal action against IPOGR,"[1]; simulated rainfall 30 min after treatment, 7 DAA, Example 16.3",16.66
same,herbicidal action against IPOGR,"[1]; simulated rainfall 2 hours after treatment, 1 DAA, Example 16.4",0
same,herbicidal action against IPOGR,"[1]; simulated rainfall 2 hours after treatment, 2 DAA, Example 16.4",0
same,herbicidal action against IPOGR,"[1]; simulated rainfall 2 hours after treatment, 3 DAA, Example 16.4",0.33
same,herbicidal action against IPOGR,"[1]; simulated rainfall 2 hours after treatment, 7 DAA, Example 16.4",11.66
same,herbicidal action against IPOGR,"[1]; simulated rainfall 6 hours after treatment, 1 DAA, Example 16.5",0
same,herbicidal action against IPOGR,"[1]; simulated rainfall 6 hours after treatment, 2 DAA, Example 16.5",1
same,herbicidal action against IPOGR,"[1]; simulated rainfall 6 hours after treatment, 3 DAA, Example 16.5",2
same,herbicidal action against IPOGR,"[1]; simulated rainfall 6 hours after treatment, 7 DAA, Example 16.5",25.55
same,herbicidal action against Brachiaria decumbens (BRADE),[2]; 1 DAA,0
same,herbicidal action against Brachiaria decumbens (BRADE),[2]; 2 DAA,0
same,herbicidal action against Brachiaria decumbens (BRADE),[2]; 3 DAA,0
same,herbicidal action against Brachiaria decumbens (BRADE),[2]; 7 DAA,11
same,herbicidal action against Brachiaria decumbens (BRADE),[2]; 14 DAA,78.33
same,herbicidal action against BRADE,"[2]; simulated rainfall 2 hours after treatment, 1 DAA, Example 17.2",0
same,herbicidal action against BRADE,"[2]; simulated rainfall 2 hours after treatment, 2 DAA, Example 17.2",0
same,herbicidal action against BRADE,"[2]; simulated rainfall 2 hours after treatment, 3 DAA, Example 17.2",0
same,herbicidal action against BRADE,"[2]; simulated rainfall 2 hours after treatment, 7 DAA, Example 17.2",56
same,herbicidal action against BRADE,"[2]; simulated rainfall 2 hours after treatment, 14 DAA, Example 17.2",100
same,herbicidal action against BRADE,"[2]; simulated rainfall 6 hours after treatment, 1 DAA, Example 17.3",0
same,herbicidal action against BRADE,"[2]; simulated rainfall 6 hours after treatment, 2 DAA, Example 17.3",0
same,herbicidal action against BRADE,"[2]; simulated rainfall 6 hours after treatment, 3 DAA, Example 17.3",0
same,herbicidal action against BRADE,"[2]; simulated rainfall 6 hours after treatment, 7 DAA, Example 17.3",30
same,herbicidal action against BRADE,"[2]; simulated rainfall 6 hours after treatment, 14 DAA, Example 17.3",100
same,herbicidal action against Echinochloa colonum (ECHCO),[3]; 1 DAA,0
same,herbicidal action against Echinochloa colonum (ECHCO),[3]; 2 DAA,0
same,herbicidal action against Echinochloa colonum (ECHCO),[3]; 3 DAA,2.66
same,herbicidal action against Echinochloa colonum (ECHCO),[3]; 7 DAA,61
same,herbicidal action against ECHCO,"[3]; simulated rainfall 30 min after treatment, 1 DAA, Example 15.2",0
same,herbicidal action against ECHCO,"[3]; simulated rainfall 30 min after treatment, 2 DAA, Example 15.2",0
same,herbicidal action against ECHCO,"[3]; simulated rainfall 30 min after treatment, 3 DAA, Example 15.2",6
same,herbicidal action against ECHCO,"[3]; simulated rainfall 30 min after treatment, 7 DAA, Example 15.2",75.33
same,herbicidal action against ECHCO,"[3]; simulated rainfall 2 hours after treatment, 1 DAA, Example 15.3",0
same,herbicidal action against ECHCO,"[3]; simulated rainfall 2 hours after treatment, 2 DAA, Example 15.3",0
same,herbicidal action against ECHCO,"[3]; simulated rainfall 2 hours after treatment, 3 DAA, Example 15.3",1.66
same,herbicidal action against ECHCO,"[3]; simulated rainfall 2 hours after treatment, 7 DAA, Example 15.3",58.33

# Reference: US20110105326A1, “Method for Enhancing the Rainfastness of Glyphosate” (BASF SE, priority 2008, published 2011)
